Laboratory results published in PubChem BioAssay AID2060502 (Molecular Pharmacology Branch, DTP, NCI, 2025).

Test system: 885724-159-R-J1-PDC complex spheroid viability
Assay: Anticancer human tumor 885724-159-R-J1-PDC patient-derived pancreatic adenocarcinoma cell line growth inhibition [GQUAD]
Conditions: for IC50: curve of first compound; for viability, T/C: stronger effect = lower value
How it was run: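 Viability of tumor cells grown as complex spheroids with endothelial and stromal cells, exposed to drug combinations. Top concentration at or near clinical Cmax (else 10 microM), diluted in half-log increments.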

[1] = second compound 0.0316 µM, first compound 0.0316 µM
[2] = second compound 0.0316 µM, first compound 0.1 µM
[3] = second compound 0.0316 µM, first compound 0.316 µM
[4] = second compound 0.0316 µM, first compound 1 µM
[5] = second compound 0.0316 µM, first compound 3.16 µM
[6] = second compound 0.0316 µM, first compound 10 µM
[7] = second compound 0.1 µM, first compound 0.0316 µM
[8] = second compound 0.1 µM, first compound 0.1 µM
[9] = second compound 0.1 µM, first compound 0.316 µM
[10] = second compound 0.1 µM, first compound 1 µM
[11] = second compound 0.1 µM, first compound 3.16 µM
[12] = second compound 0.1 µM, first compound 10 µM
[13] = second compound 0.316 µM, first compound 0.0316 µM
[14] = second compound 0.316 µM, first compound 0.1 µM
[15] = second compound 0.316 µM, first compound 0.316 µM
[16] = second compound 0.316 µM, first compound 1 µM
[17] = second compound 0.316 µM, first compound 3.16 µM
[18] = second compound 0.316 µM, first compound 10 µM
[19] = second compound 1 µM, first compound 0.0316 µM
[20] = second compound 1 µM, first compound 0.1 µM
[21] = second compound 1 µM, first compound 0.316 µM
[22] = second compound 1 µM, first compound 1 µM
[23] = second compound 1 µM, first compound 3.16 µM
[24] = second compound 1 µM, first compound 10 µM
[25] = second compound 3.16 µM, first compound 0.0316 µM
[26] = second compound 3.16 µM, first compound 0.1 µM
[27] = second compound 3.16 µM, first compound 0.316 µM
[28] = second compound 3.16 µM, first compound 1 µM
[29] = second compound 3.16 µM, first compound 3.16 µM
[30] = second compound 3.16 µM, first compound 10 µM
[31] = second compound 10 µM, first compound 0.0316 µM
[32] = second compound 10 µM, first compound 0.1 µM
[33] = second compound 10 µM, first compound 0.316 µM
[34] = second compound 10 µM, first compound 1 µM
[35] = second compound 10 µM, first compound 3.16 µM
[36] = second compound 10 µM, first compound 10 µM
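Note: spheroids exposed to agents for seven days before readout.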
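Throughout, for viability, T/C: percent of vehicle control viability where 100% = DMSO wells.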

C#Cc1c(F)ccc2cc(O)cc(-c3ncc4c(N5CC6CCC(C5)N6)nc(OCC56CCCN5CC(F)C6)nc4c3F)c12 (stereo unspecified) + Cc1cnc(CNC(=O)c2c(=O)c3ccc(N4CCCN(C)CC4)nc3n3c2sc2ccccc23)cn1
IC50 (second compound 0.0316 µM): 6.01 µM
IC50 (second compound 0.1 µM): 6.88 µM
IC50 (second compound 0.316 µM): 6.19 µM
IC50 (second compound 1 µM): 4.5 µM
IC50 (second compound 3.16 µM): 2.33 µM
IC50 (second compound 10 µM): 1.28 µM
viability, T/C [1]: 91.6%
viability, T/C [2]: 120%
viability, T/C [3]: 117%
viability, T/C [4]: 103%
viability, T/C [5]: 67%
viability, T/C [6]: 36.6%
viability, T/C [7]: 106%
viability, T/C [8]: 110%
viability, T/C [9]: 100%
viability, T/C [10]: 107%
viability, T/C [11]: 71.4%
viability, T/C [12]: 39.7%
viability, T/C [13]: 110%
viability, T/C [14]: 100%
viability, T/C [15]: 90.8%
viability, T/C [16]: 94.5%
viability, T/C [17]: 69.5%
viability, T/C [18]: 35%
viability, T/C [19]: 92.8%
viability, T/C [20]: 81.3%
viability, T/C [21]: 84.2%
viability, T/C [22]: 75.3%
viability, T/C [23]: 59.9%
viability, T/C [24]: 28.4%
viability, T/C [25]: 77.3%
viability, T/C [26]: 70.2%
viability, T/C [27]: 70%
viability, T/C [28]: 62.9%
viability, T/C [29]: 45.3%
viability, T/C [30]: 19.1%
viability, T/C [31]: 61.5%
viability, T/C [32]: 62.7%
viability, T/C [33]: 54.6%
viability, T/C [34]: 55.8%
viability, T/C [35]: 36.6%
viability, T/C [36]: 1.29%

C=CCn1c(=O)c2cnc(Nc3ccc(N4CCN(C)CC4)cc3)nc2n1-c1cccc(C(C)(C)O)n1 + Cc1cnc(CNC(=O)c2c(=O)c3ccc(N4CCCN(C)CC4)nc3n3c2sc2ccccc23)cn1
IC50 (second compound 0.0316 µM): > 10 µM
IC50 (second compound 0.1 µM): > 10 µM
IC50 (second compound 0.316 µM): > 10 µM
IC50 (second compound 1 µM): > 10 µM
IC50 (second compound 3.16 µM): > 10 µM
IC50 (second compound 10 µM): > 10 µM
viability, T/C [1]: 105%
viability, T/C [2]: 106%
viability, T/C [3]: 100%
viability, T/C [4]: 97.1%
viability, T/C [5]: 78.4%
viability, T/C [6]: 91.5%
viability, T/C [7]: 109%
viability, T/C [8]: 132%
viability, T/C [9]: 99.7%
viability, T/C [10]: 93.9%
viability, T/C [11]: 85.9%
viability, T/C [12]: 83.3%
viability, T/C [13]: 106%
viability, T/C [14]: 102%
viability, T/C [15]: 100%
viability, T/C [16]: 91.1%
viability, T/C [17]: 89.9%
viability, T/C [18]: 90%
viability, T/C [19]: 100%
viability, T/C [20]: 78.2%
viability, T/C [21]: 82.8%
viability, T/C [22]: 75.3%
viability, T/C [23]: 79.2%
viability, T/C [24]: 96.8%
viability, T/C [25]: 73.1%
viability, T/C [26]: 65.4%
viability, T/C [27]: 69.8%
viability, T/C [28]: 67.8%
viability, T/C [29]: 71.5%
viability, T/C [30]: 69.2%
viability, T/C [31]: 58.9%
viability, T/C [32]: 70.4%
viability, T/C [33]: 56.4%
viability, T/C [34]: 58.3%
viability, T/C [35]: 69.8%
viability, T/C [36]: 62%

CC(C)(O)C1CCC(Nc2ccc3ncc(-c4cccc(C(F)(F)F)c4)n3n2)CC1 (stereo unspecified) + Cc1cnc(CNC(=O)c2c(=O)c3ccc(N4CCCN(C)CC4)nc3n3c2sc2ccccc23)cn1
IC50 (second compound 0.0316 µM): 3.14 µM
IC50 (second compound 0.1 µM): 4.18 µM
IC50 (second compound 0.316 µM): 3.88 µM
IC50 (second compound 1 µM): 2.61 µM
IC50 (second compound 3.16 µM): 1.19 µM
IC50 (second compound 10 µM): 1.04 µM
viability, T/C [1]: 112%
viability, T/C [2]: 86.4%
viability, T/C [3]: 93.2%
viability, T/C [4]: 70.3%
viability, T/C [5]: 44.2%
viability, T/C [6]: 40.6%
viability, T/C [7]: 108%
viability, T/C [8]: 103%
viability, T/C [9]: 91.2%
viability, T/C [10]: 79.1%
viability, T/C [11]: 45.5%
viability, T/C [12]: 48.1%
viability, T/C [13]: 94%
viability, T/C [14]: 89.9%
viability, T/C [15]: 79.4%
viability, T/C [16]: 71.1%
viability, T/C [17]: 50.4%
viability, T/C [18]: 39.9%
viability, T/C [19]: 88.5%
viability, T/C [20]: 73.2%
viability, T/C [21]: 77.2%
viability, T/C [22]: 67%
viability, T/C [23]: 45.2%
viability, T/C [24]: 36.7%
viability, T/C [25]: 73.8%
viability, T/C [26]: 65.6%
viability, T/C [27]: 64.9%
viability, T/C [28]: 55%
viability, T/C [29]: 28.4%
viability, T/C [30]: 11.7%
viability, T/C [31]: 62%
viability, T/C [32]: 69.4%
viability, T/C [33]: 62.5%
viability, T/C [34]: 51.8%
viability, T/C [35]: 9.65%
viability, T/C [36]: 0.29%
